# Laboratory results as given in patent US9580437B2, “Triazolopyrimidine compounds and uses thereof” (Novartis AG, priority 2014, dated 2017).
# Tests used:
# [1] = target: wild type PRC2 (wtPRC2) complex (Homo sapiens (Human), UniProt O75530); experiment: EED LC-MS assay; format: biochemical; details: read-out: (b) IC50 EED LC-MS Qualified
# Protocol: A 6 μL solution of 3 μM of the peptide substrate H3K27Me0 (histone H3[21-44]-biotin) in reaction buffer was added to initiate each reaction. […] ELISA (H3K27 Methylation) Assay
# EED (1-441)-His protein = EED (1-441)-His protein (Homo sapiens (Human), UniProt O75530); experiment: EED-H3K27Me3 peptide competition binding assay by AlphaScreen; details: read-out: (a) IC50 EED Alphascreen binding Qualified
# EED (1-441)-His protein, sequence (O75530 whole entry): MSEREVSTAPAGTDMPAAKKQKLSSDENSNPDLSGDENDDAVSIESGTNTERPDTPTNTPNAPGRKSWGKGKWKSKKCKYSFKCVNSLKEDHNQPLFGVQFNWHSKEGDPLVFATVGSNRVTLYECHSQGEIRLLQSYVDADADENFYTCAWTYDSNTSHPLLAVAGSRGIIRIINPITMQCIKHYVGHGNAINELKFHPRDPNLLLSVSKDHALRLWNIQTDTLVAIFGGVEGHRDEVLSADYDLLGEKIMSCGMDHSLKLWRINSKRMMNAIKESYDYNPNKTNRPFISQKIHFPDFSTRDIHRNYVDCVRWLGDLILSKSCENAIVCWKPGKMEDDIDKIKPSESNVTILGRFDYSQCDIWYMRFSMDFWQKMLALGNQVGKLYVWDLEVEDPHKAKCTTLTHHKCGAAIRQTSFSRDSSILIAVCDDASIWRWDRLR
# From the text: EED-H3K27Me3 peptide competition binding assay by AlphaScreen (α-screen)
# wild type PRC2 (wtPRC2) complex, sequence (O75530 whole entry): as above
# wild type PRC2 (wtPRC2) complex, sequence (Q15910 whole entry partner): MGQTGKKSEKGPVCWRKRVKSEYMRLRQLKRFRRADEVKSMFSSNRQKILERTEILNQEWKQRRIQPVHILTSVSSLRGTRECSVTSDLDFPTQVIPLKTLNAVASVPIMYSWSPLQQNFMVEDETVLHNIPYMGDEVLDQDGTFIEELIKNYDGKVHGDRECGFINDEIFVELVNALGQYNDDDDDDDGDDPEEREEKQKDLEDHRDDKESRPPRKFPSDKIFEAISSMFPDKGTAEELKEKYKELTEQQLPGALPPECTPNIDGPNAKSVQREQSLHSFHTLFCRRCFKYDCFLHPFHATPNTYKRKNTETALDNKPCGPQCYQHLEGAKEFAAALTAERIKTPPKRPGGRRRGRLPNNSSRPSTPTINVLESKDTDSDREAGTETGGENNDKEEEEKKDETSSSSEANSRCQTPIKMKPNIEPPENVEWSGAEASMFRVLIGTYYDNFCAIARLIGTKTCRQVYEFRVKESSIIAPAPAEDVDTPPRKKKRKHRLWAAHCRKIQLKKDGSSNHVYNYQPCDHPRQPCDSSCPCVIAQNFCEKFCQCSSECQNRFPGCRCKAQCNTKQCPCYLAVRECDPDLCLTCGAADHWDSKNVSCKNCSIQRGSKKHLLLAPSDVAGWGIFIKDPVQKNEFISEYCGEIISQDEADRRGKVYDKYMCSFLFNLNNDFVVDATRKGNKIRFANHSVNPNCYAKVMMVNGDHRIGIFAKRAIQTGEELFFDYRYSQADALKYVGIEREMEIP
# wild type PRC2 (wtPRC2) complex, sequence (Q15022 whole entry partner): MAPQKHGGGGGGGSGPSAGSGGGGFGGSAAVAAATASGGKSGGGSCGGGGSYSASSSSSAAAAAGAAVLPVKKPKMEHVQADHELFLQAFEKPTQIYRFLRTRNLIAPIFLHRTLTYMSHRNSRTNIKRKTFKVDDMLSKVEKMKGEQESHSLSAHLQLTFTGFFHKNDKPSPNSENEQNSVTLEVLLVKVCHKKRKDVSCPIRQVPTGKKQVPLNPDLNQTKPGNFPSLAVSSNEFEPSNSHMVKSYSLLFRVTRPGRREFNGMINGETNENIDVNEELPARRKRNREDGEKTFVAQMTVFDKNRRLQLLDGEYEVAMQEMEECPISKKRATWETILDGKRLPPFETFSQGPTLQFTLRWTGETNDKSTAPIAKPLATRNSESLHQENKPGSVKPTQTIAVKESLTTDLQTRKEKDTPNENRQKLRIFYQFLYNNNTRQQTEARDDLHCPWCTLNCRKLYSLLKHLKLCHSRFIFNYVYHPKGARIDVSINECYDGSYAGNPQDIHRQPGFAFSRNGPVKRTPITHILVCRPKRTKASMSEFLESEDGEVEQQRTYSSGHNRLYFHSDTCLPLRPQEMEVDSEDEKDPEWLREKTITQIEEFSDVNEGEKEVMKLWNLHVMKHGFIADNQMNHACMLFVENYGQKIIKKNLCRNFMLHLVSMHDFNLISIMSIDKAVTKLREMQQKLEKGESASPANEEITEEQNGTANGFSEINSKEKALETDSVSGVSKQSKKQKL
Compound,IC50 [1],IC50 (EED (1-441)-His protein)
"Fc1ccccc1-c1cnc(NCc2c(F)ccc3c2CCO3)n2cnnc12 [Example 94, N-((5-fluoro-2,3-dihydrobenzofuran-4-yl)methyl)-8-(2-fluorophenyl)-[1,2,4]triazolo[4,3-c]pyrimidin-5-amine]",18.6 nM,11.3 nM
"CS(=O)(=O)CCCOc1cncc(-c2cnc(NCc3cccc4c3CCO4)n3cnnc23)c1 [Example 98, N-((2,3-dihydrobenzofuran-4-yl)methyl)-8-(5-(3-(methylsulfonyl)propoxy)pyridin-3-yl)-[1,2,4]triazolo[4,3-c]pyrimidin-5-amine]",35.6 nM,21.7 nM
"FC1(F)CCN(CCc2ccc(-c3cnc(NCc4cccc5c4CCO5)n4cnnc34)cn2)C1 [Example 100, 8-(6-(2-(3,3-difluoropyrrolidin-1-yl)ethyl)pyridin-3-yl)-N-((2,3-dihydrobenzofuran-4-yl)methyl)-[1,2,4]triazolo[4,3-c]pyrimidin-5-amine]",31.5 nM,14 nM
CN(C)CCN(C)C(=O)c1ccc(-c2cnc(NCc3cccc4c3CCO4)n3cnnc23)cn1 [Example 102],68.8 nM,33.9 nM
"Cc1cc(-c2cnc(NCc3cccc4c3CCO4)n3cnnc23)cnc1N1CCCC1 [Example 103, N-((2,3-dihydrobenzofuran-4-yl)methyl)-8-(5-methyl-6-(pyrrolidin-1-yl)pyridin-3-yl)-[1,2,4]triazolo[4,3-c]pyrimidin-5-amine]",431 nM,728 nM
"Cc1cc(-c2cnc(NCc3cccc4c3CCO4)n3cnnc23)cnc1N1CCNC(=O)C1 [Example 105, 4-(5-(5-(((2,3-dihydrobenzofuran-4-yl)methyl)amino)-[1,2,4]triazolo[4,3-c]pyrimidin-8-yl)-3-methylpyridin-2-yl)piperazin-2-one]",32.6 nM,26.9 nM
"CS(=O)(=O)CCOc1cncc(-c2cnc(NCc3cccc4c3CCO4)n3cnnc23)c1 [Example 106, N-((2,3-dihydrobenzofuran-4-yl)methyl)-8-(5-(2-(methylsulfonyl)ethoxy)pyridin-3-yl)-[1,2,4]triazolo[4,3-c]pyrimidin-5-amine]",34.1 nM,25 nM
"O=CN1CCN(CCc2ccc(-c3cnc(NCc4cccc5c4CCO5)n4cnnc34)cn2)CC1 [Example 107, 4-(2-(5-(5-(((2,3-dihydrobenzofuran-4-yl)methyl)amino)-[1,2,4]triazolo[4,3-c]pyrimidin-8-yl)pyridin-2-yl)ethyl)piperazine-1-carbaldehyde]",25 nM,12.4 nM
"CNc1cc(F)c(-c2cnc(NCc3cccc4c3CCO4)n3cnnc23)cn1 [Example 111, N-((2,3-dihydrobenzofuran-4-yl)methyl)-8-(4-fluoro-6-(methylamino)pyridin-3-yl)-[1,2,4]triazolo[4,3-c]pyrimidin-5-amine]",17.4 nM,19 nM
"CN(C)c1cc(F)c(-c2cnc(NCc3cccc4c3CCO4)n3cnnc23)cn1 [Example 112, N-((2,3-dihydrobenzofuran-4-yl)methyl)-8-(6-(dimethylamino)-4-fluoropyridin-3-yl)-[1,2,4]triazolo[4,3-c]pyrimidin-5-amine]",17.6 nM,17.7 nM
"CCNC(=O)c1ccc(-c2cnc(NCc3cccc4c3CCO4)n3cnnc23)cn1 [Example 114, 5-(5-(((2,3-dihydrobenzofuran-4-yl)methyl)amino)-[1,2,4]triazolo[4,3-c]pyrimidin-8-yl)-N-ethylpicolinamide]",18.6 nM,15.4 nM
"O=C1OCCN1c1ccc(-c2cnc(NCc3cccc4c3CCO4)n3cnnc23)cn1 [Example 117, 3-(5-(5-(((2,3-dihydrobenzofuran-4-yl)methyl)amino)-[1,2,4]triazolo[4,3-c]pyrimidin-8-yl)pyridin-2-yl)oxazolidin-2-one]",29.4 nM,23.5 nM
"Cc1ccncc1-c1cnc(NCc2c(F)ccc3c2CCO3)n2cnnc12 [Example 118, N-((5-fluoro-2,3-dihydrobenzofuran-4-yl)methyl)-8-(4-methylpyridin-3-yl)-[1,2,4]triazolo[4,3-c]pyrimidin-5-amine]",18.2 nM,10.1 nM
"Fc1ccc2c(c1CNc1ncc(-c3ccnc(N4CCOCC4)c3)c3nncn13)CCO2 [Example 120, N-((5-fluoro-2,3-dihydrobenzofuran-4-yl)methyl)-8-(2-morpholinopyridin-4-yl)-[1,2,4]triazolo[4,3-c]pyrimidin-5-amine]",25.6 nM,15.6 nM
"N#Cc1ccccc1-c1cnc(NCc2c(F)ccc3c2CCO3)n2cnnc12 [Example 121, 2-(5-(((5-fluoro-2,3-dihydrobenzofuran-4-yl)methyl)amino)-[1,2,4]triazolo[4,3-c]pyrimidin-8-yl)benzonitrile]",22.1 nM,13.4 nM
"NC(=O)c1ccccc1-c1cnc(NCc2c(F)ccc3c2CCO3)n2cnnc12 [Example 122, 2-(5-(((5-fluoro-2,3-dihydrobenzofuran-4-yl)methyl)amino)-[1,2,4]triazolo[4,3-c]pyrimidin-8-yl)benzamide]",43.7 nM,19.2 nM
"Cc1ncccc1-c1cnc(NCc2cccc3c2CCO3)n2cnnc12 [Example 123, N-((2,3-dihydrobenzofuran-4-yl)methyl)-8-(2-methylpyridin-3-yl)-[1,2,4]triazolo[4,3-c]pyrimidin-5-amine]",23.4 nM,12.3 nM

# These reach a lower IC50 [1]. Values come first.
IC50 [1],IC50 (EED (1-441)-His protein),Compound
15.7 nM,12.7 nM,"O=CN1CCCN(c2ccc(-c3cnc(NCc4cccc5c4CCO5)n4cnnc34)cn2)CC1 [Example 113, 4-(5-(5-(((2,3-dihydrobenzofuran-4-yl)methyl)amino)-[1,2,4]triazolo[4,3-c]pyrimidin-8-yl)pyridin-2-yl)-1,4-diazepane-1-carbaldehyde]"
15.2 nM,9.3 nM,"OCCN1CCN(c2ccc(-c3cnc(NCc4cccc5c4CCO5)n4cnnc34)cn2)CC1 [Example 110, 2-(4-(5-(5-(((2,3-dihydrobenzofuran-4-yl)methyl)amino)-[1,2,4]triazolo[4,3-c]pyrimidin-8-yl)pyridin-2-yl)piperazin-1-yl)ethanol]"
13.7 nM,8.8 nM,"O=C1CN(CCc2ccc(-c3cnc(NCc4cccc5c4CCO5)n4cnnc34)cn2)CCN1 [Example 109, 4-(2-(5-(5-(((2,3-dihydrobenzofuran-4-yl)methyl)amino)-[1,2,4]triazolo[4,3-c]pyrimidin-8-yl)pyridin-2-yl)ethyl)piperazin-2-one]"
13.6 nM,11.7 nM,"CC1(C)COC(c2ccc(-c3cnc(NCc4cccc5c4CCO5)n4cnnc34)cn2)=N1 [Example 101, N-((2,3-dihydrobenzofuran-4-yl)methyl)-8-(6-(4,4-dimethyl-4,5-dihydrooxazol-2-yl)pyridin-3-yl)-[1,2,4]triazolo[4,3-c]pyrimidin-5-amine]"
13.2 nM,26 nM,"CC1CCCN1c1ccc(-c2cnc(NCc3cccc4c3CCO4)n3cnnc23)cn1 (stereo not drawn) [Example 96, N-((2,3-dihydrobenzofuran-4-yl)methyl)-8-(6-(2-methylpyrrolidin-1-yl)pyridin-3-yl)-[1,2,4]triazolo[4,3-c]pyrimidin-5-amine]"
12.8 nM,5.2 nM,"CN(C)C(=O)c1ccc(-c2cnc(NCc3cccc4c3CCO4)n3cnnc23)cn1 [Example 95, 5-(5-(((2,3-dihydrobenzofuran-4-yl)methyl)amino)-[1,2,4]triazolo[4,3-c]pyrimidin-8-yl)-N,N-dimethylpicolinamide]"
12 nM,9.6 nM,"O=C1CN(c2ccc(-c3cnc(NCc4cccc5c4CCO5)n4cnnc34)cn2)CCN1 [Example 104, 4-(5-(5-(((2,3-dihydrobenzofuran-4-yl)methyl)amino)-[1,2,4]triazolo[4,3-c]pyrimidin-8-yl)pyridin-2-yl)piperazin-2-one]"
11 nM,6.7 nM,"CC(=O)N1CCN(CCc2ccc(-c3cnc(NCc4cccc5c4CCO5)n4cnnc34)cn2)CC1 [Example 108, 1-(4-(2-(5-(5-(((2,3-dihydrobenzofuran-4-yl)methyl)amino)-[1,2,4]triazolo[4,3-c]pyrimidin-8-yl)pyridin-2-yl)ethyl)piperazin-1-yl)ethanone]"
8.6 nM,6.1 nM,"COC(=O)N1CCN(c2ccc(-c3cnc(NCc4cccc5c4CCO5)n4cnnc34)cn2)CC1 [Example 97, methyl 4-(5-(5-(((2,3-dihydrobenzofuran-4-yl)methyl)amino)-[1,2,4]triazolo[4,3-c]pyrimidin-8-yl)pyridin-2-yl)piperazine-1-carboxylate]"
7.6 nM,4.7 nM,"Cc1cc(-c2cnc(NCc3c(F)ccc4c3CCO4)n3cnnc23)ccn1 [Example 116, N-((5-fluoro-2,3-dihydrobenzofuran-4-yl)methyl)-8-(2-methylpyridin-4-yl)-[1,2,4]triazolo[4,3-c]pyrimidin-5-amine]"
6.9 nM,4.7 nM,"Fc1ccc2c(c1CNc1ncc(-c3cccnc3F)c3nncn13)CCO2 [Example 115, N-((5-fluoro-2,3-dihydrobenzofuran-4-yl)methyl)-8-(2-fluoropyridin-3-yl)-[1,2,4]triazolo[4,3-c]pyrimidin-5-amine]"
6.7 nM,4.2 nM,"CC(C)(O)c1ccc(-c2cnc(NCc3cccc4c3CCO4)n3cnnc23)cn1 [Example 99, 2-(5-(5-(((2,3-dihydrobenzofuran-4-yl)methyl)amino)-[1,2,4]triazolo[4,3-c]pyrimidin-8-yl)pyridin-2-yl)propan-2-ol]"
6.6 nM,4 nM,"Fc1ccc2c(c1CNc1ncc(-c3ccc(C4CC4)nc3)c3nncn13)CCO2 [Example 119, 8-(6-cyclopropylpyridin-3-yl)-N-((5-fluoro-2,3-dihydrobenzofuran-4-yl)methyl)-[1,2,4]triazolo[4,3-c]pyrimidin-5-amine]"
